For one compound, inhibition results are on record in patent publication EP1268487B1, “TRICYCLIC PROTEIN KINASE INHIBITORS” (Wyeth, priority 2000, dated 2001).

Assay [1] has as its target T1, c-Met (Homo sapiens, UniProt P08581).
T1 construct: The cytoplasmic domain of c-Met was generated by reverse transcriptase-polymerase chain reaction; His tag (from pFastBac-HTc vector; purified on Ni-NTA/Talon); made in house; host or cells: Sf9 insect cells (baculovirus)
Nature of the assay: DELFIA assay for c-Met receptor kinase inhibitors. It counts as biochemical. The method, then:
The c-Met kinase assay was performed as a DELFIA (dissociation enchanced lanthanide fluorometric immunoassay), an ELISA-like protocol based upon time-resolved fluorometry as described previously [Braunwalder, A. F., Yarwood, D.R., Sills, M.A., and Lipson, K.E., Anal. Biochem. 238, 159-164 (1996)]. The protocol was adopted for the screening of inhibitors of the kinase activity of recombinant c-Met. [Loganzo, F., and. Hardy, C., American Biotechnology Laboratory 16(13), 26-28 (1998)]. The cytoplasmic domain of c-Met was generated by reverse transcriptase-polymerase chain reaction using RNA isolated from human mammary epithelial cells as template, cloned into the pFastBac-HTc vector (Life Technologies) and protein expressed in Sf9 insect cells by baculovirus infection. Protein was purified by imidazole elution from Ni-NTA resin (Invitrogen, Carlsbad, CA) or Talon resin (Clontech, Palo Alto, CA). Various conditions were evaluated for the kinase screening protocol and screening was accomplished with the following method. Polystyrene Maxisorp plates (Nunc) were pre-coated for 1 hour to overnight at room temperature with 5 µg/ml poly(Glu4-Tyr) diluted in Tris-buffered saline (TBS). Plates were washed 3X with TBS. c-Met protein preparation was diluted 1:80 into 0.1% BSA/ 4 mM HEPES. A master mix was prepared consisting of: 1 volume of diluted c-Met, 1 volume of 5X buffer (20 mM HEPES, pH 7.4; 2 mM MnCl2; 100 µM Na3VO4; 1 mM DTT), 0.9 volume of water. Master mix (29 µl) was added to the wells of peptide-coated microtiter plates. For assays where c-Met autophosphorylation was evaluated, plates were uncoated and c-Met was diluted into 4 mM HEPES at 1:40 without BSA. Compounds (1 µl) at various dilutions (1 mM to 0.1 µM) prepared in DMSO were added and mixed well with an automatic piptettor. After incubation 20 minutes at room temperature, the reaction was initiated with 20 µl of 62.5 µM ATP/ 50 mM MgCl2 (final 25 µM ATP/ 20 mM MgCl2 in assay). Reactions were incubated 45 minutes at room temperature. Plates were then washed 3X with 100 µl each of DELFIA wash buffer (Wallac). Antibody binding was performed by adding 75 µl of Europium-conjugated anti-phosphotyrosine diluted 1:2000 in Assay Buffer (Wallac) for 1 hour at room temperature. Plates were washed 3X with DELFIA wash buffer. Detection was done by addition of 100 µl of Enhancement Solution (Wallac). After 30 minutes, plates were read in a Wallac VICTOR-2 time-resolved fluorometer. Inhibition data was reported as europium counts for compound treated wells normalized to control counts. IC50 values were obtained by using log doses of compound and calculated using Data Analysis Toolbox software, version 1.0.2 (MDL Information Systems, Inc.).

The target in assay [2] is T2, Raf-1 (c-Raf) (Homo sapiens, UniProt P04049).
T2 construct: Sf9 insect cell lysate containing full length 6his-tagged recombinant human c-Raf; 6his; host or cells: c-Raf: Sf9 insect cell lysate; MEK1 and MAPK: E. coli
T2 sequence (P04049 whole entry): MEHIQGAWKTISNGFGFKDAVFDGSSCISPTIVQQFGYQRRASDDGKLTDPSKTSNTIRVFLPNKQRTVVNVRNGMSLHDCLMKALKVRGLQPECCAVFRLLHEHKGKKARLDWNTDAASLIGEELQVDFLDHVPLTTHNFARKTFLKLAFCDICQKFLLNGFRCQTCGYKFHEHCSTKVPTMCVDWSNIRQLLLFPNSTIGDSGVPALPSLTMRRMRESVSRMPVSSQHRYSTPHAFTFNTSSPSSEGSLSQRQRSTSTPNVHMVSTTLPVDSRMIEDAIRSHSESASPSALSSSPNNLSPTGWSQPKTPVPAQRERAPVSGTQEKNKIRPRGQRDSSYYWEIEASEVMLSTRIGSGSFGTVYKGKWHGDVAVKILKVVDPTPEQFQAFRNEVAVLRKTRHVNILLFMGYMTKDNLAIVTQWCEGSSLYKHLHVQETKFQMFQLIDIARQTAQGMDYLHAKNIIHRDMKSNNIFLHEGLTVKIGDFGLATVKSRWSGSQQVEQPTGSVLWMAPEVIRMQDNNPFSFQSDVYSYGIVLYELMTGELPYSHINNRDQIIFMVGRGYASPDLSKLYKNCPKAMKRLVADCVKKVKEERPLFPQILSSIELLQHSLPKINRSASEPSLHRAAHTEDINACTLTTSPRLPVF
Nature of the assay: Raf-1 kinase cascade assay. Format: biochemical. The method, then: (Specific Activity: ∼200U/ml). Human Non-active Mek-1-GST and human GST-MAP kinase (recombinant proteins produced in E. coli ). • Stock Solutions c-Raf Assay: • 1. Assay Dilution Buffer (ADB): 20mM MOPS, pH 7.2, 25mM β-glycerol phosphate, 5mM EGTA, 1mM sodium orthovanadate, 1mM dithiothreitol. • 2. Magnesium/ATP Cocktail: 500µM cold ATP and 75 mM magnesium chloride in ADB. • 4. Active Kinase: Human Active c-Raf: Use at 0.4U per assay point. • 5. Non-active GST-MEK1: Use at 0.1µg per assay point. • 6. Non-active GST-p42 MAP Kinase: Use at 1.0 µg per assay point. • Stock Solutions ELISA: • 1. TBST - Tris (50 mM, pH 7.5), NaCl ( 150 mM), Tween-20 (0.05 %) • 2. Superblock (Pierce) • 3. Anti-GST Ab (Pharmacia) • 4. Anti-Phospho MAPK (Sigma) • 5. Anti-Mouse Ab / Europium conjugate (Wallac) • Assay Procedure: • First Stage: c-Raf Dependent Activation of GST-MEK and GST-MAPK • 1. Add […] of ADB per assay (i.e. per well of a 96 well plate) • 2. Add 10 ml of 0.5 mM cold ATP and 75 mM magnesium chloride in ADB. • 3. Add 2 ml of c-Raf (0.4U/assay), in conjunction with 1.6ml non-active MEK1 ([…]). • 4. Add 4 ml of non-active GST-p42 MAP Kinase ([…]). • 5. Incubate for 60 minutes at 30°C in a shaking incubator. • 6. Transfer this mixture to an anti-GST Ab coated 96 well plate (Nunc Immunosorb plates coated o/n with a-GST, then blocked with Pierce Superblock). • 7. Incubate for 60 minutes at 30°C in a shaking incubator • 8. Wash 3X with TBST, add Anti-Phospho MAPK (Sigma) (1:3000) • 9. Incubate for 60 minutes at 30°C in a shaking incubator • 10. Wash 3X with TBST, add Anti-Mouse Ab / Europium conjugate (Wallac) (1:500) • 11. Incubate for 60 minutes at 30°C in a shaking incubator • 12. Wash 3X with TBST, Read plates in Wallac Victor model Plate Reader. • 13. Collect data analyze in Excel for single point and IC50 determinations.
Typically Raf-1 assay is run at compound concentrations from 10 µM to 30 nM in half log dilutions. (% inhibition is determined for each compound concentration).

T1 sequence (P08581 956-1390 limits assumed): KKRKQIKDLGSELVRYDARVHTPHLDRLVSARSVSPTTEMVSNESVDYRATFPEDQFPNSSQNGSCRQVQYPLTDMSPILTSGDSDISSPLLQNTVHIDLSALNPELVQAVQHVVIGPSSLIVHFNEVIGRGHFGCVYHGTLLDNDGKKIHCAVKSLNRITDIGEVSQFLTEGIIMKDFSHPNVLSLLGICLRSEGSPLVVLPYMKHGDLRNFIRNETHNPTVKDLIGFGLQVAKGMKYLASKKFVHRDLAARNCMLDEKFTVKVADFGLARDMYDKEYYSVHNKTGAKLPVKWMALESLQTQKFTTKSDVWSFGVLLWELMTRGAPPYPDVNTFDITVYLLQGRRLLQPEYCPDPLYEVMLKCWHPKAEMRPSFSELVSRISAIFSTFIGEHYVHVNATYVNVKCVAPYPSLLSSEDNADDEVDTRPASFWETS

Turning to `N#Cc1cnc2cc3c(cc2c1Nc1ccc(F)c(Cl)c1)NCCO3` [Example 7, 9-(3-Chloro-4-fluoroanilino)-2,3-dihydro-1H-[1,4]oxazino[3,2-g]quinoline-8-carbonitrile], the inhibition at 10 µg/mL in assay [1] turned out to be 80%; in assay [2] (dose 10.0 µg/mL), 90%. Also, in assay [2] (dose 0.03 µg/mL), the inhibition at 0.03 µg/mL was -5%. Besides, the inhibition at 0.1 µg/mL in assay [2] (dose 0.1 µg/mL) came out at 2%. Besides, in assay [2] (dose 0.3 µg/mL), the inhibition at 0.3 µg/mL stood at 8%. In assay [2] (dose 1.0 µg/mL), the inhibition at 1 µg/mL came to 16%. Further, the inhibition at 3 µg/mL in assay [2] (dose 3.0 µg/mL) worked out at 68%.

A word on the inhibition: it is the drop in the measured response relative to a control, in per cent.
